Measured values taken from US20160297833A1, “THIENOPYRIMIDINES AS MKNK1 AND MKNK2 INHIBITORS” (BAYER PHARMA AKTIENGESELLSCHAFT, priority 2013, published 2016).
Where two headings read alike, the source gives them in different places.

Target: T1, human full-length MKNK1 (Homo sapiens, UniProt Q9BUB5, T385D)
T1 construct: GST (N); purchased Carna Biosciences 02-145; host or cells: insect cells (baculovirus expression system)
Assay: MKNK1 kinase high ATP assay (TR-FRET)
Type: biochemical
Details: for IC50: read-out: MKNK1 IC50
Experimental: MKNK1 Kinase High ATP Assay
MKNK1-inhibitory activity at high ATP of compounds of the present invention after their preincubation with MKNK1 was quantified employing the TR-FRET-based MKNK1 high ATP assay as described in the following paragraphs.
As substrate for the kinase reaction the biotinylated peptide biotin-Ahx-[…] (C-terminus in amide form) was used, which can be purchased e.g. from the company Biosyntan (Berlin-Buch, Germany).
For the assay 50 nL of a 100 fold concentrated solution of the test compound in DMSO was pipetted into a black low volume 384 well microtiter plate (Greiner Bio-One, Frickenhausen, Germany), 2 μL of a solution of MKNK1 in aqueous assay buffer [50 mM HEPES pH 7.5, 5 mM MgCl2, 1.0 mM dithiothreitol, 0.005% (v/v) Nonidet-P40 (Sigma)] was added and the mixture was incubated for 15 min at 22° C. to allow pre-binding of the test compounds to the enzyme before the start of the kinase reaction. Then the kinase reaction was started by the addition of 3 μL of a solution of adenosine-tri-phosphate (ATP, 3.3 mM=>final conc. in the 5 μL assay volume is 2 mM) and substrate (0.1 μM=>final conc. in the 5 μL assay volume is 0.06 μM) in assay buffer and the resulting mixture was incubated for a reaction time of 30 min at 22° C. The concentration of MKNK1 was adjusted depending of the activity of the enzyme lot and was chosen appropriate to have the assay in the linear range, typical concentrations were in the range of 0.003 μg/mL. The reaction was stopped by the addition of 5 μL of a solution of TR-FRET detection reagents (5 nM streptavidine-XL665 [Cisbio Bioassays, Codolet, France] and 1 nM anti-ribosomal protein S6 (pSer236)-antibody from Invitrogen [#44921G] and 1 nM LANCE EU-W1024 labeled ProteinG [Perkin-Elmer, product no. AD0071]) in an aqueous EDTA-solution (100 mM EDTA, 0.1% (w/v) bovine serum albumin in 50 mM HEPES pH 7.5).
The resulting mixture was incubated for 1 h at 22° C. to allow the formation of complex between the phosphorylated biotinylated peptide and the detection reagents. Subsequently the amount of phosphorylated substrate was evaluated by measurement of the resonance energy transfer from the Eu-chelate to the streptavidine-XL. Therefore, the fluorescence emissions at 620 nm and 665 nm after excitation at 350 nm were measured in a TR-FRET reader, e.g. a Rubystar (BMG Labtechnologies, Offenburg, Germany) or a Viewlux (Perkin-Elmer). The ratio of the emissions at 665 nm and at 622 nm was taken as the measure for the amount of phosphorylated substrate.

[1] = Table 1, MKNK1 kinase high ATP assay, 2 mM ATP

T1 sequence (Q9BUB5 1-424 isoform Q9BUB5-2 T344D): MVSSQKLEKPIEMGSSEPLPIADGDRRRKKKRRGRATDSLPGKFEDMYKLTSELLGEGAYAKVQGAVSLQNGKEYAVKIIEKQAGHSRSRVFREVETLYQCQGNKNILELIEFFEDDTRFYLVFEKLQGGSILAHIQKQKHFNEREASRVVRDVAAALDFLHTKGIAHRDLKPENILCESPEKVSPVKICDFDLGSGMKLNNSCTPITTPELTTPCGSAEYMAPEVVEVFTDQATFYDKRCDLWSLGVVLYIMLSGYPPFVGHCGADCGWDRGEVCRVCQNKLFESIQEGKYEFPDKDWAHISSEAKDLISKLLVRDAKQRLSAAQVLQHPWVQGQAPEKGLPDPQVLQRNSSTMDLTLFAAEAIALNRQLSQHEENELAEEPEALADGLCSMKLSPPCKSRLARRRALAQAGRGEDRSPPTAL

Molecule: CCOc1cc2[nH]ncc2cc1Nc1ncnc2sc3c(c12)CC[C@H](C(=O)N1CC[C@@H](N(C)C)C1)C3 [Example 190, [(3R)-3-(Dimethylamino)pyrrolidin-1-yl]{(7S)-4-[(6-ethoxy-1H-indazol-5-yl)amino]-5,6,7,8-tetrahydro[1]benzothieno[2,3-d]pyrimidin-7-yl}methanone]
- IC50 [1]: 300 pM

Molecule: CCON(C)C(=O)[C@H]1CCc2c(sc3ncnc(Nc4cc5cn[nH]c5cc4OC)c23)C1 [Example 214, (7S)—N-Ethoxy-4-[(6-methoxy-1H-indazol-5-yl)amino]-N-methyl-5,6,7,8-tetrahydro[1]benzothieno[2,3-d]pyrimidine-7-carboxamide]
- IC50 [1]: 1200 pM

Molecule: CCCC(=O)NCCOc1cc2[nH]ncc2cc1Nc1ncnc2sc3c(c12)CC[C@H](C(=O)N(C)C)C3 [Example 270, (7S)-4-({6-[2-(Butanoylamino)ethoxy]-1H-indazol-5-yl}amino)-N,N-dimethyl-5,6,7,8-tetrahydro[1]benzothieno[2,3-d]pyrimidine-7-carboxamide]
- IC50 [1]: 1100 pM

Molecule: CCN(C)C(=O)[C@@H]1CCc2c(sc3ncnc(Nc4cc5cn[nH]c5cc4OC)c23)C1 [Example 25, (7R)—N-Ethyl-4-[(6-methoxy-1H-indazol-5-yl)amino]-N-methyl-5,6,7,8-tetrahydro[1]benzothieno[2,3-d]pyrimidine-7-carboxamide]
- IC50 [1]: 8300 pM

Molecule: CC(C)Oc1cc2[nH]ncc2cc1Nc1ncnc2sc3c(c12)CC[C@H](C(=O)N(C)CCO)C3 [Example 90, (7S)—N-(2-Hydroxyethyl)-N-methyl-4-{[6-(propan-2-yloxy)-1H-indazol-5-yl]amino}-5,6,7,8-tetrahydro[1]benzothieno[2,3-d]pyrimidine-7-carboxamide]
- IC50 [1]: 600 pM

Molecule: CN(C)C(=O)[C@H]1CCc2c(sc3ncnc(Nc4cc5cn[nH]c5cc4OCCN=[N+]=[N-])c23)C1 [Example 107, (7S)-4-{[6-(2-Azidoethoxy)-1H-indazol-5-yl]amino}-N,N-dimethyl-5,6,7,8-tetrahydro[1]benzothieno[2,3-d]pyrimidine-7-carboxamide]
- IC50 [1]: 10000 pM

Molecule: COc1cc2[nH]ncc2cc1Nc1ncnc2sc3c(c12)CC[C@H](C(=O)N1C(=O)O[C@H](c2ccccc2)[C@@H]1C)C3 [Example 64, (4S,5R)-3-({(7S)-4-[(6-Methoxy-1H-indazol-5-yl)amino]-5,6,7,8-tetrahydro[1]benzothieno[2,3-d]pyrimidin-7-yl}carbonyl)-4-methyl-5-phenyl-1,3-oxazolidin-2-one]
- IC50 [1]: 10500 pM

Molecule: CC(C)Oc1cc2[nH]ncc2cc1Nc1ncnc2sc3c(c12)CC[C@H](C(=O)N1CC[C@H](N(C)C)C1)C3 [Example 168, [(3S)-3-(dimethylamino)pyrrolidin-1-yl][(7S)-4-{[6-(propan-2-yloxy)-1H-indazol-5-yl]amino}-5,6,7,8-tetrahydro[1]benzothieno[2,3-d]pyrimidin-7-yl]methanone]
- IC50 [1]: 400 pM

Molecule: CC(C)Oc1cc2[nH]ncc2cc1Nc1ncnc2sc3c(c12)CC[C@@H](C(=O)N(C)CC(F)F)C3 [Example 82, (7R)—N-(2,2-Difluoroethyl)-N-methyl-4-{[6-(propan-2-yloxy)-1H-indazol-5-yl]amino}-5,6,7,8-tetrahydro[1]benzothieno[2,3-d]pyrimidine-7-carboxamide]
- IC50 [1]: 8100 pM

Molecule: C[C@@H]1COCCN1C(=O)[C@H]1CCc2c(sc3ncnc(Nc4cc5cn[nH]c5cc4OCCN(C)C)c23)C1 [Example 114, [(7S)-4-({6-[2-(Dimethylamino)ethoxy]-1H-indazol-5-yl}amino)-5,6,7,8-tetrahydro[1]benzothieno[2,3-d]pyrimidin-7-yl][(3R)-3-methylmorpholin-4-yl]methanone]
- IC50 [1]: 34200 pM

Molecule: CCOC(=O)NCCOc1cc2[nH]ncc2cc1Nc1ncnc2sc3c(c12)CC[C@H](C(=O)N(C)C)C3 [Example 262, Ethyl {2-[(5-{[(7S)-7-(dimethylcarbamoyl)-5,6,7,8-tetrahydro[1]benzothieno[2,3-d]pyrimidin-4-yl]amino}-1H-indazol-6-yl)oxy]ethyl}carbamate]
- IC50 [1]: 200 pM

Molecule: COc1cc2[nH]ncc2cc1Nc1ncnc2sc3c(c12)CC[C@H](C(=O)N1CCN(C(=O)N(C)C)CC1)C3 [Example 49, 4-({(7S)-4-[(6-Methoxy-1H-indazol-5-yl)amino]-5,6,7,8-tetrahydro[1]benzothieno[2,3-d]pyrimidin-7-yl}carbonyl)-N,N-dimethylpiperazine-1-carboxamide]
- IC50 [1]: 100 pM

Molecule: CC(C)Oc1cc2[nH]ncc2cc1Nc1ncnc2sc3c(c12)CC[C@H](C(=O)N1C[C@@H]2C[C@H]1CO2)C3 [Example 86, (1S,4S)-2-Oxa-5-azabicyclo[2.2.1]hept-5-yl[(7S)-4-{[6-(propan-2-yloxy)-1H-indazol-5-yl]amino}-5,6,7,8-tetrahydro[1]benzothieno[2,3-d]pyrimidin-7-yl]methanone]
- IC50 [1]: 600 pM

Molecule: CC(C)Oc1cc2[nH]ncc2cc1Nc1ncnc2sc3c(c12)CC[C@H](C(=O)N1CCOC[C@H]1C)C3 [Example 85, [(3R)-3-Methylmorpholin-4-yl][(7S)-4-{[6-(propan-2-yloxy)-1H-indazol-5-yl]amino}-5,6,7,8-tetrahydro[1]benzothieno[2,3-d]pyrimidin-7-yl]methanone]
- IC50 [1]: 600 pM

Molecule: (7S)-4-(1H-Indazol-5-ylamino)-N-methyl-N-(propan-2-yl)-5,6,7,8-tetrahydro[1]benzothieno[2,3-d]pyrimidine-7-carboxamide [Example 7]
- IC50 (Table 3, example numbers of WO2013/174744(A1), not of this patent, pure enantiomer from chiral HPLC, absolute configuration at amide 'R or S'): 10500 pM
- IC50 (Table 3, example numbers of WO2013/174744(A1), not of this patent, pure enantiomer from chiral HPLC, absolute configuration at amide 'S or R'): 4500 pM
- Activity Ratio MKNK1 (Table 3, example numbers of WO2013/174744(A1), ratio of the IC50 values of the two enantiomers): 2.3

Molecule: COc1cc2[nH]ncc2cc1Nc1ncnc2sc3c(c12)CC[C@H](C(=O)N1CCCC(F)C1)C3 (mixture of isomers) [Example 205, [(3RS)-3-fluoropiperidin-1-yl]{(7S)-4-[(6-methoxy-1H-indazol-5-yl)amino]-5,6,7,8-tetrahydro[1]benzothieno[2,3-d]pyrimidin-7-yl}methanone]
- IC50 [1]: 500 pM

Molecule: CC(C)Oc1cc2[nH]ncc2cc1Nc1ncnc2sc3c(c12)CC[C@H](C(=O)N(C)CC(F)F)C3 [Example 81, (7S)—N-(2,2-Difluoroethyl)-N-methyl-4-{[6-(propan-2-yloxy)-1H-indazol-5-yl]amino}-5,6,7,8-tetrahydro[1]benzothieno[2,3-d]pyrimidine-7-carboxamide]
- IC50 [1]: 300 pM
- Activity-Ratio MKNK1 (Table 2, ratio of the IC50-value of an R-enantiomer and its corresponding S-enantiomer): 27.5

Molecule: COc1cc2[nH]ncc2cc1Nc1ncnc2sc3c(c12)CC[C@H](C(=O)N1CCCCO1)C3 [Example 212, {(7S)-4-[(6-Methoxy-1H-indazol-5-yl)amino]-5,6,7,8-tetrahydro[1]benzothieno[2,3-d]pyrimidin-7-yl}(1,2-oxazinan-2-yl)methanone]
- IC50 [1]: 300 pM

Molecule: CCOc1cc2[nH]ncc2cc1Nc1ncnc2sc3c(c12)CC[C@H](C(=O)N1C[C@@H](O)[C@H](O)C1)C3 [Example 75, [(3R,4R)-3,4-Dihydroxypyrrolidin-1-yl]{(7S)-4-[(6-ethoxy-1H-indazol-5-yl)amino]-5,6,7,8-tetrahydro[1]benzothieno[2,3-d]pyrimidin-7-yl}methanone]
- IC50 [1]: 300 pM

Molecule: CN(C)C(=O)[C@H]1CCc2c(sc3ncnc(Nc4cc5cn[nH]c5cc4OC(F)(F)F)c23)C1 [Example 191, (7S)—N,N-Dimethyl-4-{[6-(trifluoromethoxy)-1H-indazol-5-yl]amino}-5,6,7,8-tetrahydro[1]benzothieno[2,3-d]pyrimidine-7-carboxamide]
- IC50 [1]: 1400 pM
